Source: patent publication US4762840A, “Pyrimido[2,1-b]benzothiazoles having antiallergic activity” (Roussel Uclaf, priority 1984, dated 1988)

Tested on: lungs
Experiment: Antigen-induced elevation of lung perfusion pressure (isolated perfused sensitized lung, ovalbumen)
Parameters: species or system guinea pig (Dunkin Hartley)
Conditions: Cavia porcellus; perfused lungs of ovalbumen-sensitized guinea pigs; compound in krebs fluid 30 minutes prior to second antigen dose (15 μg ovalbumen); at least four lungs per concentration; read-out: IC50 (inhibition of antigen induced broncho-constriction)
Procedure: Antigen-induced elevation of lung perfusion pressure
Male Dunkin Hartley guinea pigs (Porcellus) weighing between 450-700 g were used (four per test concentration) and were housed in cages. The animals were sensitized by two weekly exposures to 1% W/V aerosol ovalbumen. The animals were anaesthetized with 2.5 mg/kg diazepam i.p. and 1 ml/kg Hyponorm i.m. Following anaethesia, the animals were exsanguinated by severing both carotid arteries and the chest was opened and the lungs removed, split into two at the carina and both cannulated via the main lobar bronchus and connected to a perfusion system. The lungs were perfused with aerated krebs fluid (95% O2 :5% CO2) at 37° C. and 5 μg in 0.1 ml Ovalbumen was injected through an injection port proximal to each lung. Elevation of perfusion pressure by the antigen was recorded and sixty minutes later, 15 μg of ovalbumen were administered. The test compounds were added to the krebs fluid reservoir thirty minutes prior to the second antigen dose. For each weekly batch of animals used, control measurements were made without treatment (n=10 ). The second antigen response was expressed as a percentage of the first. For each test, at least four lungs from four different animals were used per concentration. The percentage inhibition of antigen induced broncho-constriction was calculated.

Structure (SMILES) | IC50
CCN(CC)C(=O)Cc1ccc2c(c1)sc1nc(=O)cc(-c3ccccc3)n12 [Example 47, N,N-diethyl-2-oxo-4-phenyl-2H-pyrimido-[2,1-b]benzothiazole-8-acetamide] | 10 µM
O=C(Cc1ccc2c(c1)sc1nc(=O)cc(-c3ccccc3)n12)N1CCCCC1 [Example 48, 1-(N-piperidino)-2-(2-oxo-4-phenyl-2H-pyrimido[2,1-b]benzothiazole-8-yl)-ethanone] | 10 to 100 µM
CC(C(=O)OC1(C)CCCCC1)c1ccc2c(c1)sc1nc(=O)cc(-c3ccccc3)n12 (stereo not drawn) [Example 49, 1-Methylcyclohexyl α-methyl-2-oxo-4-phenyl-2H-pyrimido[2,1-b]benzothiazole-8-acetate] | 1 to 10 µM
CC(C(=O)OC12CC3CC(CC(C3)C1)C2)c1ccc2c(c1)sc1nc(=O)cc(-c3ccccc3)n12 (stereo not drawn) [Example 50, 1-Adamantyl α-methyl-2-oxo-4-phenyl-2H-pyrimido[2,1-b]benzothiazole-8-acetate] | ≤ 1 µM
